What all share (type): cell-based
For test [1], the target named is KiSS-1 receptor (Homo sapiens) (UniProt Q969F8). The test can be described thus: Binding affinity to GPR54 in HEK293 cells at 500 nM incubated for 1 hr followed by UV irradiation for 30 secs by Western blot analysis. On the technique in general: A western blot detects proteins with antibodies after separation by electrophoresis.
Test [2] has the same target. Kind of test: Binding affinity to GPR54 in HEK293 cells at 500 nM incubated for 1 hr followed by UV irradiation for 30 secs by Western blot analysis in presence of PNGase F.
For test [3] the target is unchanged. The test can be described thus: Competitive binding affinity to GPR54 in HEK293 cells at 500 nM incubated for 1 hr followed by UV irradiation for 30 secs by Western blot analysis in presence of unlabeled Kp-10.

Molecules are shown by their SMILES. Calls of active or inactive are those of the source. No cut-off for these calls is given here. Where a SMILES comes first, the peptide text is derived from it. The star is where a group is joined. X1 = [N-]=[N+]=Nc1ccc(C(=O)NCCN2C(=O)CC(*)C2=O)c(O)c1; Biotin = O=C1N[C@H]2[C@H](CS[C@H]2CCCCC(=O)*)N1

Sequence of KiSS-1 receptor (Homo sapiens) (Q969F8 whole entry): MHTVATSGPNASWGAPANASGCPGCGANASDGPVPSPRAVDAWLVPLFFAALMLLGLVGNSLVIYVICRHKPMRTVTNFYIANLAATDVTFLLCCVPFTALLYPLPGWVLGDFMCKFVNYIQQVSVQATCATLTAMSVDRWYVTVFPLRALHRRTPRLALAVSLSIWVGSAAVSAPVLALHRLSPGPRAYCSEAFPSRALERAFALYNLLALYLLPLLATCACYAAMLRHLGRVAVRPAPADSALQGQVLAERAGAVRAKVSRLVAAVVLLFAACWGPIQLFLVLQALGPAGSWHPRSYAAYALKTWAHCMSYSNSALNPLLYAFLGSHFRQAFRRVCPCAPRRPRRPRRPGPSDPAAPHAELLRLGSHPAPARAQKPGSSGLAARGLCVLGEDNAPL

On to `CC(C)C[C@H](NC(=O)CNC(=O)[C@H](Cc1ccccc1)NC(=O)[C@H](CO)NC(=O)[C@H](CC(N)=O)NC(=O)[C@H](Cc1c[nH]c2ccccc12)NC(=O)[C@H](CSC1CC(=O)N(CCNC(=O)c2ccc(N=[N+]=[N-])cc2O)C1=O)NC(=O)[C@H](Cc1ccc(O)cc1)NC(=O)[C@H](CC(N)=O)NC(=O)[C@@H]1CCCN1C(=O)[C@H](CC(C)C)NC(=O)[C@H](CC(=O)O)NC(=O)CCCC[C@@H]1SC[C@@H]2NC(=O)N[C@@H]21)C(=O)N[C@@H](CCCNC(=N)N)C(=O)N[C@@H](Cc1ccccc1)C(N)=O` (some centres undefined) (Biotin-DLPNYC(X1)WNSFGLRF-NH2), for which, in test [1], the result was inactive.
Turning to `CC(C)C[C@H](NC(=O)CNC(=O)[C@H](Cc1ccccc1)NC(=O)[C@H](CO)NC(=O)[C@H](CC(N)=O)NC(=O)[C@H](Cc1c[nH]c2ccccc12)NC(=O)[C@H](CC(N)=O)NC(=O)[C@H](CSC1CC(=O)N(CCNC(=O)c2ccc(N=[N+]=[N-])cc2O)C1=O)NC(=O)[C@H](CC(N)=O)NC(=O)[C@@H]1CCCN1C(=O)[C@H](CC(C)C)NC(=O)[C@H](CC(=O)O)NC(=O)CCCC[C@@H]1SC[C@@H]2NC(=O)N[C@@H]21)C(=O)N[C@@H](CCCNC(=N)N)C(=O)N[C@@H](Cc1ccccc1)C(N)=O` (some centres undefined) (Biotin-DLPNC(X1)NWNSFGLRF-NH2), the outcome in test [1] was inactive.
As to `CC(C)C[C@H](NC(=O)CNC(=O)[C@H](Cc1ccccc1)NC(=O)[C@H](CO)NC(=O)[C@H](CC(N)=O)NC(=O)[C@H](CSC1CC(=O)N(CCNC(=O)c2ccc(N=[N+]=[N-])cc2O)C1=O)NC(=O)[C@H](CC(N)=O)NC(=O)[C@H](Cc1ccc(O)cc1)NC(=O)[C@H](CC(N)=O)NC(=O)[C@@H]1CCCN1C(=O)[C@H](CC(C)C)NC(=O)[C@H](CC(=O)O)NC(=O)CCCC[C@@H]1SC[C@@H]2NC(=O)N[C@@H]21)C(=O)N[C@@H](CCCNC(=N)N)C(=O)N[C@@H](Cc1ccccc1)C(N)=O` (some centres undefined) (Biotin-DLPNYNC(X1)NSFGLRF-NH2), the result in test [2] and in test [3] was inactive.
